Data set [1] deals with human neuroblastoma cell lines SH-SY5Y. The data set is described as follows: Improvement of mitochondrial dysfunction in MPP+-treated SH-SY5Y cells (Alamar Blue mitochondrial oxidation reduction activity). Type of data set: cell-based. As to conditions: SH-SY5Y cells in 1.5 mM MPP+ medium, relative to cells in DMSO alone = 100%, read-out: Fluorescence Intensity (%); for activity at 0.01 µg/mL: test compound 0.01 μg/ml; for activity at 0.03 µg/mL: test compound 0.03 μg/ml; for activity at 0.1 µg/mL: test compound 0.1 μg/ml; for activity at 0.3 µg/mL: test compound 0.3 μg/ml; for activity at 1 µg/mL: test compound 1 μg/ml. The method, then: Evaluation of Improvement of Mitochondrial Dysfunction using Human Neuroblastoma Cell Lines SH-SY5Y Treated with 1-methyl-4-phenylpyridinium (MPP^+)
In human neuroblastoma cell lines SH-SY5Y in which mitochondrial activity was injured by MPP^+ treatment (Bollimuntha S. et al., J Biol Chem, 280, 2132-2140 (2005) and Shang T. et al., J Biol Chem, 280, 34644-34653 (2005)), improvement of the mitochondrial dysfunction was evaluated on the basis of the measurement value of the mitochondrial oxidation reduction activity using Alamar Blue fluorescent dye after the compound addition (Nakai M. et. al, Exp Neurol, 179, 103-110 (2003)).
The human neuroblastoma cell lines SH-SY5Y were cultured in Dulbecco's Modified Eagle's Medium containing 10% fetal bovine serum (DMEM containing 50 units/ml penicillin and 50 μg/ml streptomycin as antibiotics) at 37° C. in the presence of 5% carbon dioxide. Cells were scattered on a poly-D-lysine-coated 96-well black plate at a concentration of 3-6×10^4 cells/cm^2 (medium amount: 100 μl/well), and cultured in the above medium for two days. Further, the medium was changed to a DMEM containing a 1% N2 supplement (N2-DMEM) or to a medium (100 μl/well) in which 1.5 mM MPP^+ was dissolved. The cells were cultured therein for 39 to 48 hours, and then subjected to a mitochondrial oxidation reduction activity measurement system. A sample compound that had been previously dissolved in dimethyl sulfoxide (DMSO) was diluted with N2-DMEM, and added in a volume of 10 μl/well 24 hours before the activity measurement (final compound concentration: 0.01 to 1 μg/ml).
After removal of the medium by suction, a balanced salt solution containing 10% Alamar Blue (154 mM sodium chloride, 5.6 mM potassium chloride, 2.3 mM calcium chloride, 1.0 mM magnesium chloride, 3.6 mM sodium bicarbonate, 5 mM glucose, 5 mM HEPES, pH 7.2) was added in a volume of 100 μl/well, and reacted in an incubator at 37° C. for 1 hour. The fluorescent intensity was detected using a fluorescence detector (a product of Hamamatsu Photonics K.K., excitation wavelength 530 nm, measurement wavelength 580 nm) to thereby measure the mitochondrial oxidation reduction activity.
The fluorescent intensity of the well of the cells cultured in a medium containing MPP^+ and in each of the sample compounds was relatively evaluated based on a 100% fluorescent intensity of the well of the cells cultured in a medium containing DMSO alone (final concentration: 0.1%).
For orientation: The colour change of resazurin is a common sign of viable cells or microbes.

Structures are written as SMILES.

By melting point is commonly meant the temperature of the solid-liquid transition.

The molecule `CCCOc1ccc(F)c2c(=O)c(-c3ccc(CC)cc3)c(C)[nH]c12` [Example 71, 3-(4-Ethylphenyl)-5-fluoro-2-methyl-8-propoxy-1H-quinolin-4-one] showed a melting point of 221 to 222 °C. Further, in data set [1], the activity at 0.01 µg/mL was found to be 56%, the activity at 0.03 µg/mL was 61%, the activity at 0.1 µg/mL worked out at 73% and the activity at 0.3 µg/mL was found to be 78%. The activity at 1 µg/mL in data set [1] stood at 72%.
On to `CCCOc1ccc(F)c2c(=O)c(-c3ccc(OC(F)(F)F)cc3)c(C)[nH]c12` [Example 70, 5-Fluoro-2-methyl-8-propoxy-3-(4-trifluoromethoxyphenyl)-1H-quinolin-4-one], for which the melting point was 167 to 168 °C. In addition, in data set [1], the activity at 0.01 µg/mL was 56%, the activity at 0.03 µg/mL was 57%, the activity at 0.1 µg/mL was 67% and the activity at 0.3 µg/mL was determined as 71%. Further, the activity at 1 µg/mL in data set [1] came out at 63%.
The molecule `CCCOc1ccc(F)c2c(=O)c(-c3ccc(OC)c(OC)c3)c[nH]c12` [Example 62, 3-(3,4-Dimethoxyphenyl)-5-fluoro-8-propoxy-1H-quinolin-4-one] displayed a melting point of 217 to 218 °C. In addition, in data set [1], the activity at 0.01 µg/mL is 66%, the activity at 0.03 µg/mL was found to be 62%, the activity at 0.1 µg/mL stood at 79% and the activity at 0.3 µg/mL came to 84%. In addition, the activity at 1 µg/mL in data set [1] is 80%.
Turning to `COc1ccc(-c2c[nH]c3c(N(C)C4CCCCC4)ccc(F)c3c2=O)cc1` [Example 25, 8-(N-Cyclohexyl-N-methylamino)-5-fluoro-3-(4-methoxyphenyl)-1H-quinolin-4-one], the melting point was in the range of 224 to 225 °C. For the same molecule, in data set [1], the activity at 0.01 µg/mL amounted to 46%, the activity at 0.03 µg/mL is 56%, the activity at 0.1 µg/mL was 66% and the activity at 0.3 µg/mL worked out at 50%. In addition, in data set [1], the activity at 1 µg/mL is 24%.
In turn, `COc1ccc(-c2c[nH]c3c(OCC4CC4)ccc(F)c3c2=O)cc1` [Example 24, 8-Cyclopropylmethoxy-5-fluoro-3-(4-methoxyphenyl)-1H-quinolin-4-one] came in with a melting point of 190 to 191 °C. Further, in data set [1], the activity at 0.01 µg/mL was 60%, the activity at 0.03 µg/mL was found to be 70%, the activity at 0.1 µg/mL was determined as 82% and the activity at 0.3 µg/mL is 78%. Moreover, the activity at 1 µg/mL in data set [1] turned out to be 84%.
Consider `CCCOc1ccc(F)c2c(=O)c(-c3ccc(OC)nc3)c[nH]c12` [Example 63, 5-Fluoro-3-(6-methoxypyridin-3-yl)-8-propoxy-1H-quinolin-4-one], for which the melting point was 215 to 216 °C. Besides, in data set [1], the activity at 0.01 µg/mL came out at 58%, the activity at 0.03 µg/mL came to 65%, the activity at 0.1 µg/mL stood at 74% and the activity at 0.3 µg/mL worked out at 75%. Further, the activity at 1 µg/mL in data set [1] turned out to be 85%.
`CCCOc1ccc(F)c2c(=O)c(-c3ccc(OC)cc3)cn(CC3CC3)c12` [Example 94, 1-Cyclopropylmethyl-5-fluoro-3-(4-methoxyphenyl)-8-propoxy-1H-quinolin-4-one]: the melting point lay in the range of 60 to 62 °C. In data set [1], the activity at 0.01 µg/mL was 56%, the activity at 0.03 µg/mL stood at 67%, the activity at 0.1 µg/mL is 69% and the activity at 0.3 µg/mL is 59%. Besides, in data set [1], the activity at 1 µg/mL is 41%.
On to `CCCSc1ccc(F)c2c(=O)c(-c3ccc(OC)cc3)c[nH]c12` [Example 40, 5-Fluoro-3-(4-methoxyphenyl)-8-propylsulfanyl-1H-quinolin-4-one], for which the melting point is 173 to 174 °C. For the same molecule, in data set [1], the activity at 0.01 µg/mL was 60%, the activity at 0.03 µg/mL is 64%, the activity at 0.1 µg/mL came out at 76% and the activity at 0.3 µg/mL came to 70%. The activity at 1 µg/mL in data set [1] turned out to be 72%.
The molecule `COc1ccc(-c2c[nH]c3c(-c4ccsc4)ccc(F)c3c2=O)cc1` [Example 87, 5-Fluoro-3-(4-methoxyphenyl)-8-thiophen-3-yl-1H-quinolin-4-one] came in with a melting point of 183 to 184 °C. Further, in data set [1], the activity at 0.01 µg/mL turned out to be 63%, the activity at 0.03 µg/mL was 66%, the activity at 0.1 µg/mL turned out to be 79% and the activity at 0.3 µg/mL stood at 63%. Besides, in data set [1], the activity at 1 µg/mL was 51%.
With `CCCOc1ccc(F)c2c(=O)c(-c3ccsc3CO)c[nH]c12` [Example 100, 5-Fluoro-3-(2-hydroxymethylthiophen-3-yl)-8-propoxy-1H-quinolin-4-one], the melting point is 181 to 184 °C. In data set [1], the activity at 0.01 µg/mL was 56%, the activity at 0.03 µg/mL turned out to be 56%, the activity at 0.1 µg/mL was 71% and the activity at 0.3 µg/mL amounted to 73%. The activity at 1 µg/mL in data set [1] turned out to be 84%.
As to `CCCOc1ccc(F)c2c(=O)c(-c3ccc(OC)cc3)c[nH]c12` [Example 6, 5-Fluoro-3-(4-methoxyphenyl)-8-propoxy-1H-quinolin-4-one], the melting point was in the range of 196 to 197 °C. Also, in data set [1], the activity at 0.01 µg/mL is 59%, the activity at 0.03 µg/mL is 71%, the activity at 0.1 µg/mL worked out at 85% and the activity at 0.3 µg/mL is 88%. Also, the activity at 1 µg/mL in data set [1] came to 83%.
As to `CCCOc1ccc(F)c2c(=O)c(-c3cccs3)c[nH]c12` [Example 59, 5-Fluoro-8-propoxy-3-thiophen-2-yl-1H-quinolin-4-one], the melting point lay in the range of 211 to 213 °C. In data set [1], the activity at 0.01 µg/mL worked out at 53%, the activity at 0.03 µg/mL was 56%, the activity at 0.1 µg/mL is 67% and the activity at 0.3 µg/mL was found to be 66%. For the same molecule, the activity at 1 µg/mL in data set [1] came to 54%.
As for `CCCOc1ccc(F)c2c(=O)c(-c3ccc(OC)cc3)cn(C)c12` [Example 91, 5-Fluoro-3-(4-methoxyphenyl)-1-methyl-8-propoxy-1H-quinolin-4-one], the melting point lay in the range of 147 to 148 °C. Further, in data set [1], the activity at 0.01 µg/mL turned out to be 65%, the activity at 0.03 µg/mL was determined as 69%, the activity at 0.1 µg/mL is 81% and the activity at 0.3 µg/mL amounted to 82%. The activity at 1 µg/mL in data set [1] was 83%.
Regarding `CCCOc1ccc(F)c2c(=O)c(-c3ccc(OC)nc3OC)c[nH]c12` [Example 64, 3-(2,6-Dimethoxypyridin-3-yl)-5-fluoro-8-propoxy-1H-quinolin-4-one], the melting point was 198 to 199 °C. Also, in data set [1], the activity at 0.01 µg/mL was 55%, the activity at 0.03 µg/mL worked out at 65%, the activity at 0.1 µg/mL stood at 74% and the activity at 0.3 µg/mL amounted to 72%. The activity at 1 µg/mL in data set [1] came out at 77%.
`CCCN(C)c1ccc(F)c2c(=O)c(-c3ccc(OC)cc3)c[nH]c12` [Example 30, 5-Fluoro-3-(4-methoxyphenyl)-8-(N-methyl-N-propylamino)-1H-quinolin-4-one] registered a melting point of 145 to 146 °C. In data set [1], the activity at 0.01 µg/mL is 50%, the activity at 0.03 µg/mL was determined as 54%, the activity at 0.1 µg/mL was 69% and the activity at 0.3 µg/mL is 64%. Further, in data set [1], the activity at 1 µg/mL stood at 56%.
Molecule `CCCOc1ccc(F)c2c(=O)c(-c3ccc(OC)c(Cl)c3)c[nH]c12` [Example 4, 3-(3-Chloro-4-methoxyphenyl)-5-fluoro-8-propoxy-1H-quinolin-4-one] gave a melting point of 217 to 218 °C. Also, in data set [1], the activity at 0.01 µg/mL was determined as 56%, the activity at 0.03 µg/mL came out at 61%, the activity at 0.1 µg/mL was 70% and the activity at 0.3 µg/mL turned out to be 72%. Moreover, in data set [1], the activity at 1 µg/mL came to 59%.
For `CCCOc1ccc(F)c2c(=O)c(-c3ccc(CC)cc3)c[nH]c12` [Example 53, 3-(4-Ethylphenyl)-5-fluoro-8-propoxy-1H-quinolin-4-one], the melting point lay within 153 to 154 °C. In data set [1], the activity at 0.01 µg/mL was 53%, the activity at 0.03 µg/mL was found to be 56%, the activity at 0.1 µg/mL was determined as 67% and the activity at 0.3 µg/mL is 60%. In data set [1], the activity at 1 µg/mL came to 67%.

Values taken from patent publication US20160304461A1, “QUINOLONE COMPOUND AND PHARMACEUTICAL COMPOSITION” (OTSUKA PHARMACEUTICAL CO., LTD., priority 2007, published 2016).
